Measurements reported in ChEMBL document CHEMBL6092169, “Development of selective heterocyclic PDE4 inhibitors for treatment of psoriasis” (Eur J Med Chem, 2024).
One block for each compound: values may come before it. Activity calls are given as the source filed them. The rule behind the calls is not given here.

What was measured:
[1] = molecular target: T1, 3',5'-cyclic-AMP phosphodiesterase 4D (Homo sapiens, UniProt Q08499); test: Inhibition of full-length PDE4D2 (unknown origin) using FAM-cAMP as substrate preincubated with compound for 15 mins followed by substrate addition and measured after 30 mins by fluorescence polarization based IMAP assay
T1 sequence (Q08499 whole entry): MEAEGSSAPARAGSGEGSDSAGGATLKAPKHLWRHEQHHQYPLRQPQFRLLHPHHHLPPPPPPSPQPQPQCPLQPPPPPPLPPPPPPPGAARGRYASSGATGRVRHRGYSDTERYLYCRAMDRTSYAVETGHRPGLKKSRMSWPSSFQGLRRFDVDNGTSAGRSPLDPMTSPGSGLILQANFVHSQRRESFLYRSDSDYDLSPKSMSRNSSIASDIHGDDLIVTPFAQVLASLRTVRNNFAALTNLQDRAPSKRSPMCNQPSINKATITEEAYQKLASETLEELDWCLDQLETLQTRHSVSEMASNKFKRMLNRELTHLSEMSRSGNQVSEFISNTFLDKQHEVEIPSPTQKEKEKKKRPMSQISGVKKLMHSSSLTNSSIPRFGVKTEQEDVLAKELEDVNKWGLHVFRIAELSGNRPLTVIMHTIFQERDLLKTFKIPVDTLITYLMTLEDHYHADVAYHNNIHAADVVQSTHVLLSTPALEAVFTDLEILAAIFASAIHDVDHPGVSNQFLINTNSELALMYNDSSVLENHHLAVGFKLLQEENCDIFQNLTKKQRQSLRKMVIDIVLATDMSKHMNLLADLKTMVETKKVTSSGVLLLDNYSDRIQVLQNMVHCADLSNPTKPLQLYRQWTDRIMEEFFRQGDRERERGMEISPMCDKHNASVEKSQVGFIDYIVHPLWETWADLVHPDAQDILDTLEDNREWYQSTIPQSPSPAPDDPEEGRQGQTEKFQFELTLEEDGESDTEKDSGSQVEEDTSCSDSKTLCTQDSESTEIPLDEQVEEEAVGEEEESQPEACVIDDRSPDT

RAW264.7 [2] = test: Anti-inflammatory activity in mouse RAW264.7 cells assessed as inhibition of LPS-induced TNF-alpha production at 10 uM incubated for 24 hrs by ELISA relative to control; format: functional; parameters: scale not given: the % may be the effect or the level left
[3] = molecular target: T1, 3',5'-cyclic-AMP phosphodiesterase 4D; test: Inhibition of full-length PDE4D2 (unknown origin) using FAM-cAMP as substrate at 1 uM preincubated with compound for 15 mins followed by substrate addition and measured after 30 mins by fluorescence polarization based IMAP assay relative to control; settings: time 45.0 min
RAW264.7 [4] = test: Anti-inflammatory activity in mouse RAW264.7 cells assessed as inhibition of LPS-induced TNF-alpha production incubated for 24 hrs by ELISA; format: functional, cell-based; settings: RAW264.7, 24 h
[5] = Cytotoxicity against mouse RAW264.7 cells assessed as reduction in cell viability incubated for 24 hrs by CCK-8 assay; format: toxicity, cell-based
[6] = Cytotoxicity against human HaCaT cells assessed as reduction in cell viability incubated for 24 hrs by CCK-8 assay; format: toxicity, cell-based
RAW264.7 [7] = test: Anti-inflammatory activity in mouse RAW264.7 cells assessed as inhibition of LPS-induced IL-6 production incubated for 24 hrs by ELISA; format: functional, cell-based; settings: RAW264.7, 24 h
HaCaT = test: Anti-inflammatory activity in human HaCaT cells assessed as inhibition of M5-induced TNF-alpha production incubated for 24 hrs by ELISA; format: functional, cell-based
[8] = AUC (0 to t) in male ICR mouse at 5 mg/kg, iv measured for 0.083 to 24 hrs by LC-MS/MS analysis; format: ADME, organism-based; settings: in vivo, time 0.083-24 hrs
[9] = AUC (0 to t) in male ICR mouse at 10 mg/kg, po measured for 0.25 to 24 hrs by LC-MS/MS analysis; format: ADME, organism-based; settings: in vivo, time 0.25-24 hrs
[10] = AUC (0 to infinity) in male ICR mouse at 5 mg/kg, iv measured for 0.083 to 24 hrs by LC-MS/MS analysis; format: ADME, organism-based; settings: in vivo, time 0.083-24 hrs
[11] = AUC (0 to infinity) in male ICR mouse at 10 mg/kg, po measured for 0.25 to 24 hrs by LC-MS/MS analysis; format: ADME, organism-based; settings: in vivo, time 0.25-24 hrs
[12] = Initial plasma concentration in male ICR mouse at 5 mg/kg, iv measured for 0.083 to 24 hrs by LC-MS/MS analysis; format: ADME, organism-based; settings: time 0.083-24 hrs
[13] = Cmax in male ICR mouse at 10 mg/kg, po measured for 0.25 to 24 hrs by LC-MS/MS analysis; format: ADME, organism-based; settings: in vivo, time 0.25-24 hrs
[14] = Half life in male ICR mouse at 5 mg/kg, iv measured for 0.083 to 24 hrs by LC-MS/MS analysis; format: ADME, organism-based; settings: in vivo, time 0.083-24 hrs
[15] = Half life in male ICR mouse at 10 mg/kg, po measured for 0.25 to 24 hrs by LC-MS/MS analysis; format: ADME, organism-based; settings: in vivo, time 0.25-24 hrs
[16] = Apparent volume of distribution in male ICR mouse at 5 mg/kg, iv measured for 0.083 to 24 hrs by LC-MS/MS analysis; format: ADME, organism-based; settings: in vivo, time 0.083-24 hrs, read-out: Vz
[17] = Tmax in male ICR mouse at 10 mg/kg, po measured for 0.25 to 24 hrs by LC-MS/MS analysis; format: ADME, organism-based; settings: in vivo, time 0.25-24 hrs
[18] = Clearance in male ICR mouse at 5 mg/kg, iv measured for 0.083 to 24 hrs by LC-MS/MS analysis; format: ADME, organism-based; settings: in vivo, time 0.083-24 hrs
[19] = Oral bioavailability in male ICR mouse at 10 mg/kg measured for 0.25 to 24 hrs by LC-MS/MS analysis; format: ADME, organism-based; settings: in vivo, time 0.25-24 hrs
[20] = Drug absorption in suckling pig skin assessed as skin permeability by measuring transdermal amount per unit area administered topically as 1.2% ointment and measured upto 24 hrs by Franz diffusion cell system; format: ADME, tissue-based, Sus scrofa, Skin of body
[21] = Drug absorption in suckling pig skin assessed as skin permeability by measuring steady state penetration rate administered topically as 1.2% ointment and measured upto 24 hrs by Franz diffusion cell system; format: ADME, tissue-based, Sus scrofa, Skin of body
Mus musculus [22] = organism: Mus musculus; test: Anti-inflammatory activity against imiquimod-induced psoriasis in male Balb/c mouse model assessed as reduction in skin lesions pretreated with IMQ for 4 hrs followed by compound addition once daily from day 2 to 8; format: functional, organism-based; settings: dose 0.3-1.2 %, time 2-8 day
Mus musculus [23] = test: (§1) Anti-inflammatory activity against imiquimod-induced psoriasis in male Balb/c mouse model assessed as reduction in scales score at 0.3 to 1.2 % administration as ointment pretreated with IMQ for 4 hrs followed by compound addition once daily from day 2 to 8; format: functional, organism-based; settings: dose 0.3-1.2 %, time 2-8 day
Mus musculus [24] = test: Anti-inflammatory activity against imiquimod-induced psoriasis in male Balb/c mouse model assessed as reduction in thickness score at 0.3 to 1.2 % administration as ointment pretreated with IMQ for 4 hrs followed by compound addition once daily from day 2 to 8; format: functional, organism-based; settings: dose 0.3-1.2 %, time 2-8 day
Mus musculus [25] = test: Anti-inflammatory activity against imiquimod-induced psoriasis in male Balb/c mouse model assessed as reduction in erythema score at 0.3 to 1.2 % administration as ointment pretreated with IMQ for 4 hrs followed by compound addition once daily from day 2 to 8; format: functional, organism-based; settings: dose 0.3-1.2 %, time 2-8 day
Mus musculus [26] = test: Anti-inflammatory activity against imiquimod-induced psoriasis in male Balb/c mouse model assessed as reduction in spleen weight at 0.3 to 1.2 % administration as ointment pretreated with IMQ for 4 hrs followed by compound addition once daily from day 2 to 8; format: functional, organism-based; settings: dose 0.3-1.2 %, time 2-8 day
Mus musculus [27] = test: Anti-inflammatory activity against imiquimod-induced psoriasis in male Balb/c mouse model assessed as inhibition of IL-6 expression in skin at 0.3 to 1.2 % administration as ointment pretreated with IMQ for 4 hrs followed by compound addition once daily from day 2 to 8 by ELISA; format: functional, organism-based; settings: dose 0.3-1.2 %, time 2-8 day
Mus musculus [28] = test: Anti-inflammatory activity against imiquimod-induced psoriasis in male Balb/c mouse model assessed as inhibition of TNF-alpha expression in skin at 0.3 to 1.2 % administration as ointment pretreated with IMQ for 4 hrs followed by compound addition once daily from day 2 to 8 by ELISA; format: functional, organism-based; settings: dose 0.3-1.2 %, time 2-8 day
Mus musculus [29] = test: (§2) Anti-inflammatory activity against imiquimod-induced psoriasis in male Balb/c mouse model assessed as increase in skin thickness at 0.3 to 1.2 % administration as ointment pretreated with IMQ for 4 hrs followed by compound addition once daily from day 2 to 8 by H and E staining based microscopic analysis; format: functional, organism-based; settings: dose 0.3-1.2 %, time 2-8 day
Mus musculus [30] = test: as §2, with “scales” for “thickness”; format: functional, organism-based; settings: dose 0.3-1.2 %, time 2-8 day
Mus musculus [31] = test: as §2, with “reduction” for “increase”, “immune cell infiltration” for “skin thickness”; format: functional, organism-based; settings: dose 0.3-1.2 %, time 2-8 day
Mus musculus [32] = test: as §1, with “Ki67+ cells in back skin” for “scales score”, “8 by Immunohistochemistry based microscopic analysis” for “8”; format: functional, organism-based; settings: dose 0.3-1.2 %, time 2-8 day

Structure (SMILES): O=C(NCc1c(F)cccc1F)c1c[nH]c(-c2ccc(OC(F)F)c(OCC3CC3)c2)n1
IC50 [1]: 0.0159 µM
Activity (RAW264.7 [2]): 13.88%

Structure (SMILES): O=C(Nc1ccncc1)c1c[nH]c(-c2ccc(OC(F)F)c(OCC3CC3)c2)n1
inhibition [3]: 99.3%
Activity (RAW264.7 [2]): 15.37%

Structure (SMILES): O=C(NCc1ccccc1)c1c[nH]c(-c2ccc(OC(F)F)c(OCC3CC3)c2)n1
inhibition [3]: 91.1%
Activity (RAW264.7 [2]): 8.88%

Structure (SMILES): O=C(NCc1ncccn1)c1c[nH]c(-c2cc(OCC3CC3)c(OC(F)F)c(OCC3CC3)c2)n1
inhibition [3]: 1.8%

Structure (SMILES): O=C(Nc1ccncc1)c1coc(-c2ccc(OC(F)F)c(OCC3CC3)c2)n1
inhibition [3]: 59%
Activity (RAW264.7 [2]): 1.77%

Structure (SMILES): O=C(NCc1ccc(F)cc1F)c1coc(-c2ccc(OC(F)F)c(OCC3CC3)c2)n1
inhibition [3]: 67.6%
Activity (RAW264.7 [2]): 18.06%

Structure (SMILES): COC(=O)c1coc(-c2ccc(OC(F)F)c(OCC3CC3)c2)n1
inhibition [3]: 70.1%
Activity (RAW264.7 [2]): 26.96%

Structure (SMILES): O=C(NCc1ncccn1)c1c[nH]c(-c2ccc(OC(F)F)c(OC(F)F)c2)n1
inhibition [3]: 96.3%
Activity (RAW264.7 [2]): 4.06%

Structure (SMILES): Cc1ccc(-c2nc(C(=O)Nc3ccncc3)c[nH]2)cc1C
inhibition [3]: 3.4%
Activity (RAW264.7 [2]): 11.94%

Structure (SMILES): O=C(NCc1cc(F)ccc1F)c1c[nH]c(-c2ccc(OC(F)F)c(OCC3CC3)c2)n1
IC50 (RAW264.7 [4]): 21.4 µM
CC50 at 24 h [5]: > 50 µM
CC50 at 24 h [6]: > 50 µM
IC50 (RAW264.7 [7]): 29.2 µM
IC50 (HaCaT): 22.9 µM
AUC(0-t) [8]: 5010 ng·h/mL
AUC(0-t) [9]: 3570 ng·h/mL
AUC(0-inf) [10]: 5020 ng·h/mL
AUC(0-inf) [11]: 3930 ng·h/mL
C0 [12]: 7320 ng/mL
Cmax [13]: 810 ng/mL
half-life [14]: 0.94 h
half-life [15]: 2.21 h
Vd [16]: 1.35 L/kg
Tmax [17]: 1 h
clearance [18]: 16.6 mL/min/kg
bioavailability [19]: 35.6%
Drug absorption [20]: 81.9 microg/cm2
Jss [21]: 3.45 ug/cm2.hr
Activity (Mus musculus [22]): Dose-dependent-effect
Activity (Mus musculus [23]): Active
Activity (Mus musculus [24]): Active
Activity (Mus musculus [25]): Active
Activity (Mus musculus [26]): Active
Activity (Mus musculus [27]): Active
Activity (Mus musculus [28]): Active
Activity (Mus musculus [29]): Active
Activity (Mus musculus [30]): Active
Activity (Mus musculus [31]): Active
Activity (Mus musculus [32]): Active

Structure (SMILES): O=C(O)c1c[nH]c(-c2ccc(OC(F)F)c(OCC3CC3)c2)n1
inhibition [3]: 35.7%
Activity (RAW264.7 [2]): 4.22%

Structure (SMILES): COc1cc(-c2nc(C(=O)Nc3ccc4ncsc4c3)c[nH]2)cc(OC)c1OC(F)F
inhibition [3]: 8.4%

The next lines start with results.

inhibition [3]: 78.8%
Structure (SMILES): Cn1cc(NC(=O)c2c[nH]c(-c3ccc(OC(F)F)c(OCC4CC4)c3)n2)cn1
Activity (RAW264.7 [2]): 27.5%

inhibition [3]: 87.8%
Structure (SMILES): O=C(NCc1c(F)cc(F)cc1F)c1coc(-c2ccc(OC(F)F)c(OCC3CC3)c2)n1
Activity (RAW264.7 [2]): 7.53%

IC50 [1]: 0.0182 µM
Structure (SMILES): O=C(NCc1ncccn1)c1coc(-c2ccc(OC(F)F)c(OCC3CC3)c2)n1
Activity (RAW264.7 [2]): 4.98%

inhibition [3]: 89.8%
Structure (SMILES): O=C(NCc1ccccc1)c1coc(-c2ccc(OC(F)F)c(OCC3CC3)c2)n1
Activity (RAW264.7 [2]): 8.13%

inhibition [3]: 95.9%
Structure (SMILES): O=C(NCc1cnccn1)c1c[nH]c(-c2ccc(OC(F)F)c(OCC3CC3)c2)n1
Activity (RAW264.7 [2]): 16.03%

inhibition [3]: 88.4%
Structure (SMILES): O=C(NCc1ccc(F)cc1F)c1c[nH]c(-c2ccc(OC(F)F)c(OC(F)F)c2)n1
Activity (RAW264.7 [2]): 14.32%

IC50 [1]: 0.0149 µM
Structure (SMILES): O=C(NCc1ccc(F)c(F)c1)c1c[nH]c(-c2ccc(OC(F)F)c(OCC3CC3)c2)n1
Activity (RAW264.7 [2]): 12.03%
